The term IC50 denotes the point on the concentration scale where inhibition reaches its midpoint.

Results on three compounds are retold here after patent US20260102501A1, “ANTI-CANCER NUCLEAR HORMONE RECEPTOR-TARGETING COMPOUNDS” (Nuvation Bio Inc., priority 2022, published 2026).

The test system of assay [1] is LNCap cells. The assay can be described thus: Cell viability assay (CellTiterGlo). Type of assay: cell-based. The note with it: Homo sapiens, 144 h, 6 days incubation, CellTiterGlo, read-out: LNCap (IC50).
The subject of assay [2] is T47D cells. The assay can be described thus: Cell viability assay (CellTiterGlo). Type of assay: cell-based. The note with it: Homo sapiens, 144 h.
Assay [3] has as its system IEC6 cells. Nature of the assay: Cell viability assay (CellTiterGlo). The note with it: Rattus norvegicus, IEC-6, 144 h, read-out: IEC-6 (IC50, nM). For orientation: Cellular ATP, detected with luciferase, serves as a proxy for viable cell number.
The target in assay [4] is T1, AR (cytosol from LnCaP cells) (Homo sapiens, UniProt P10275, T878A).
T1 sequence (P10275 1-920 T878A): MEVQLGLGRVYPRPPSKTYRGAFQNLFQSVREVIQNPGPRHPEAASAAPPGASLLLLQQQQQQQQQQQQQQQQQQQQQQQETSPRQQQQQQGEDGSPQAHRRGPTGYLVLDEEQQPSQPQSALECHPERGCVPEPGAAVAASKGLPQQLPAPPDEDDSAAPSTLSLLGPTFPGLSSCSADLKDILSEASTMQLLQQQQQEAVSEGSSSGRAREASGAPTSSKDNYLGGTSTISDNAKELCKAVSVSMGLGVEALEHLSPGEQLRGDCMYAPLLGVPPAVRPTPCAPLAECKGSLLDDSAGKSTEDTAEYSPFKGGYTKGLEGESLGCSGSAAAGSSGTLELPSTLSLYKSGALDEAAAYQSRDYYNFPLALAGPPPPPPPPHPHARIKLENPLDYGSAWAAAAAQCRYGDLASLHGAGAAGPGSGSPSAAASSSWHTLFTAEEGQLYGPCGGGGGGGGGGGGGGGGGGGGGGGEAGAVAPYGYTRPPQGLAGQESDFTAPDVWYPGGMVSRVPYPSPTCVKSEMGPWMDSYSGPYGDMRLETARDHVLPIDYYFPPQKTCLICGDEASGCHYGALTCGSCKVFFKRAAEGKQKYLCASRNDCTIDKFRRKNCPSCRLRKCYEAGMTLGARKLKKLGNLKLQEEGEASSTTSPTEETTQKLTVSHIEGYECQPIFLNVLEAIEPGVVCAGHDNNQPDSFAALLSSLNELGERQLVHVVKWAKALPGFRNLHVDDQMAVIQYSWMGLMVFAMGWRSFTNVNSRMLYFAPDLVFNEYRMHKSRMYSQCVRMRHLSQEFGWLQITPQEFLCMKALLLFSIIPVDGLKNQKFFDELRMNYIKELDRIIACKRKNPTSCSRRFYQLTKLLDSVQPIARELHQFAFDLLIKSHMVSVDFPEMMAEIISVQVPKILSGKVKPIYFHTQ
Nature of the assay: AR binding assay (3H-R1881 displacement).
Protocol: The plate was then centrifuged at 3000 rpm for 30 minutes at 4° C.

The target in assay [5] is T2, full-length androgen receptor (HEK293 cells stably expressing) (Homo sapiens, UniProt P10275).
T2 sequence (P10275 1-920): T1 sequence (P10275 1-920 T878A) with A878T
The assay can be described thus: AR antagonism assay (luciferase reporter).

The target of assay [6] is T3, ligand binding domain of the glucocorticoid receptor (HEK293 cells stably expressing) (Homo sapiens, UniProt P04150).
T3 sequence (P04150 524-758 limits assumed): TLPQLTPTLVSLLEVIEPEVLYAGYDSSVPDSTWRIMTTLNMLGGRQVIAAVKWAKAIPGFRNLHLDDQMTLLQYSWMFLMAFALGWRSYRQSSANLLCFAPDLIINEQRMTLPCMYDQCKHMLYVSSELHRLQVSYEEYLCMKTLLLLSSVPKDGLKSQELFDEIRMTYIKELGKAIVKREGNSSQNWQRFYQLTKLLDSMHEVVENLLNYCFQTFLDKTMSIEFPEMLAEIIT
Nature of the assay: GR antagonism assay (luciferase reporter).

Assay [7] concerns the target T4, Progesterone PR-B receptors from human breast carcinoma T47D cells (Homo sapiens, UniProt P06401).
T4 sequence (P06401 1-933): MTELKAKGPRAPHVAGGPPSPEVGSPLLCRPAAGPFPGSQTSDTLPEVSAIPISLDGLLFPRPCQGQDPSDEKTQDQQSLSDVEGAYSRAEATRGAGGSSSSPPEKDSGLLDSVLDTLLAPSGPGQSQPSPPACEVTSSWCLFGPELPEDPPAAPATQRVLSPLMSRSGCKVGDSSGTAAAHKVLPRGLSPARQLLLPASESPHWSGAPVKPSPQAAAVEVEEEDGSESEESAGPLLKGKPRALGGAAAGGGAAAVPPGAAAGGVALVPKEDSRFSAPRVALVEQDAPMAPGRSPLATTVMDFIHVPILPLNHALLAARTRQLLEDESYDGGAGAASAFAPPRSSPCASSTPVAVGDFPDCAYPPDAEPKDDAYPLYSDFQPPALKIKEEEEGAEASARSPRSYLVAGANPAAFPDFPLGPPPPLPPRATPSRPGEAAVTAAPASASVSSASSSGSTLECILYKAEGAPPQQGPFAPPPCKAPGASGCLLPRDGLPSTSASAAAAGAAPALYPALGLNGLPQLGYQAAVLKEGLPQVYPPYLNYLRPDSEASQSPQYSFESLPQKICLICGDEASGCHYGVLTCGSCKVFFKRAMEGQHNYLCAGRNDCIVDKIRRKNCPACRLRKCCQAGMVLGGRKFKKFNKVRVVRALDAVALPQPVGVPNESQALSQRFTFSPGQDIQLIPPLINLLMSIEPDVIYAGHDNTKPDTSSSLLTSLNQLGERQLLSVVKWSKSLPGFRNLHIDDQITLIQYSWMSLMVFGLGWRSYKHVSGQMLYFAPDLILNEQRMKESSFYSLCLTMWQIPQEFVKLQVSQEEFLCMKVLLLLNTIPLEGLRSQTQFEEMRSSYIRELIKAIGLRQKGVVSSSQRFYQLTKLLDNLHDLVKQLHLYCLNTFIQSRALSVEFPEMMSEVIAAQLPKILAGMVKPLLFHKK
The assay can be described thus: PR binding assay ([3H] Progesterone displacement).

In assay [8] the test system is 22Rv1 cells. Nature of the assay: Cell viability assay (CellTiterGlo). The note with it: Homo sapiens, 22Rv1, 144 h, read-out: 22RV1 (IC50, nM).
Where [9] appears, read: 6 days incubation, CellTiterGlo, read-out: T47D (IC50).

Substitutions are numbered along the chain they refer to. Read-outs that look alike come from different tables or passages of the source. Some results are limits rather than exact numbers.

With `CC[C@@]1(O)C(=O)OCc2c1cc1n(c2=O)Cc2cc3c(CN4CCN(C(=O)OCCCCN(C)c5ccc([C@H]6C[C@@]7(C)[C@@H](CC[C@]7(OC(C)=O)C(C)=O)[C@@H]7CCC8=CC(=O)CCC8=C76)cc5)CC4)c(O)ccc3nc2-1` [Compound 41, 4-((4-((8S,11R,13S,14S,17R)-17-acetoxy-17-acetyl-13-methyl-3-oxo-2,3,6,7,8,11,12,13,14,15,16,17-dodecahydro-1H-cyclopenta[a]phenanthren-11-yl)phenyl)(methyl)amino)butyl 4-(((S)-4-ethyl-4,9-dihydroxy-3,14-dioxo-3,4,12,14-tetrahydro-1H-pyrano[3′,4′:6,7]indolizino[1,2-b]quinolin-10-yl)methyl)piperazine-1-carboxylate], the IC50 was 10 to 100 nM in assay [1]; 10 to 100 nM in assay [2] (setting [9]); 101 to 1000 nM in assay [3]; 10 to 100 nM in assay [4]; 101 to 1000 nM in assay [5]; below 10 nM in assay [6]. This compound registered an IC50 in assay [7] below 10 nM.
Regarding `CC[C@@]1(O)C(=O)OCc2c1cc1n(c2=O)Cc2cc3c(CN(C)C)c(OC(=O)N4CCN(C(=O)[C@H](CCCNC(N)=O)NC(=O)[C@@H](NCCCCCCN(C)c5ccc([C@H]6C[C@@]7(C)[C@@H](CC[C@]7(OC(C)=O)C(C)=O)[C@@H]7CCC8=CC(=O)CCC8=C76)cc5)C(C)C)CC4)ccc3nc2-1` [Compound 39, (S)-10-((dimethylamino)methyl)-4-ethyl-4-hydroxy-3,14-dioxo-3,4,12,14-tetrahydro-1H-pyrano[3′,4′:6,7]indolizino[1,2-b]quinolin-9-yl 4-((S)-2-((S)-2-((6-((4-((8S,11R,13S,14S,17R)-17-acetoxy-17-acetyl-13-methyl-3-oxo-2,3,6,7,8,11,12,13,14,15,16,17-dodecahydro-1H-cyclopenta[a]phenanthren-11-yl)phenyl)(methyl)amino)hexyl)amino)-3-methylbutanamido)-5-ureidopentanoyl)piperazine-1-carboxylate], the IC50 was 101 to 1000 nM in assay [2] (read-out: T47D (IC50, nM)); 101 to 1000 nM in assay [8]; above 1000 nM in assay [3]; 10 to 100 nM in assay [4]; above 1000 nM in assay [5]; 101 to 1000 nM in assay [6]. The IC50 in assay [7] is below 10 nM.
Regarding `CC[C@@]1(O)C(=O)OCc2c1cc1n(c2=O)Cc2c-1nc1cc(F)c(C)c3c1c2[C@@H](NC(=O)CN1CCN(CCCCCCN(C)c2ccc([C@H]4C[C@@]5(C)[C@@H](CC[C@]5(OC(C)=O)C(C)=O)[C@@H]5CCC6=CC(=O)CCC6=C54)cc2)CC1)CC3` [Compound 37, (8S,11R,13S,14S,17R)-17-acetyl-11-(4-((6-(4-(2-(((1S,9S)-9-ethyl-5-fluoro-9-hydroxy-4-methyl-10,13-dioxo-2,3,9,10,13,15-hexahydro-1H,12H-benzo[de]pyrano[3′,4′:6,7]indolizino[1,2-b]quinolin-1-yl)amino)-2-oxoethyl)piperazin-1-yl)hexyl)(methyl)amino)phenyl)-13-methyl-3-oxo-2,3,6,7,8,11,12,13,14,15,16,17-dodecahydro-1H-cyclopenta[a]phenanthren-17-yl acetate], the IC50 in assay [1] was 101 to 1000 nM; in assay [2] (setting [9]), 10 to 100 nM; in assay [3], 101 to 1000 nM; in assay [4] it was below 10 nM; in assay [5] it was 101 to 1000 nM; in assay [6], 10 to 100 nM. For the same compound, in assay [7], the half-inhibitory concentration (IC50) was below 10 nM.
